Laboratory results reported in the supplement of paper PMC5908809.

Columns and labels:
[1] = test system: normal NK cells expanded with K562-aAPC; assay: percent inhibition of viability; higher = more inhibition; details: 72 h, IL-2 2.5 ng/mL
Experimental: (§1)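 Drug sensitivity and resistance testing on K562-aAPC-expanded normal NK cells: 5 concentrations (10-fold steps over a 10,000-fold range), 72 h at 37 °C, viability by CellTiter-Glo normalised to DMSO and benzethonium chloride controls; DSS from the fitted curve.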

[2] = test system: normal NK cells expanded with K562-aAPC; assay: drug sensitivity score (DSS) (DSS units); higher = more sensitive; extreme values may be limits of the assay; details: 72 h; IL-2 2.5 ng/mL
Experimental: as §1

NK-YS (IL-2 2.5 ng/mL) [3] = assay: as above; details: 72 h
KAI3 (IL-2 2.5 ng/mL) [4] = assay: as above; details: 72 h
NK-92 (IL-2 2.5 ng/mL) [5] = assay: as above; details: 72 h
NKL (IL-2 2.5 ng/mL) [6] = assay: as above; details: 72 h
KHYG-1 (IL-2 2.5 ng/mL) [7] = assay: as above; details: 72 h
[8] = test system: normal primary NK cells, pool 3 (3 donors) (IL-2 2.5 ng/mL); assay: as above; details: 72 h
DERL-7 (IL-2 2.5 ng/mL) [9] = assay: as above; details: 72 h
SNK-6 (IL-2 2.5 ng/mL) [10] = assay: as above; details: 72 h
[11] = test system: normal primary NK cells, pool 1 (3 donors) (IL-2 2.5 ng/mL); assay: as above; details: 72 h
YT (IL-2 2.5 ng/mL) [12] = assay: as above; details: 72 h
[13] = test system: normal primary NK cells, pool 2 (3 donors) (IL-2 2.5 ng/mL); assay: as above; details: 72 h
IMC-1 (IL-2 20 ng/mL) [14] = assay: as above; details: 72 h
[15] = test system: normal primary NK cells, pool 1 (3 donors), resting (IL-2 0 ng/mL); assay: as above; details: 72 h
NK-YS (IL-2 2.5 ng/mL) [16] = assay: percent inhibition of viability; higher = more inhibition; details: 72 h
KAI3 (IL-2 2.5 ng/mL) [17] = assay: as above; details: 72 h
NK-92 (IL-2 2.5 ng/mL) [18] = assay: as above; details: 72 h
NKL (IL-2 2.5 ng/mL) [19] = assay: as above; details: 72 h
KHYG-1 (IL-2 2.5 ng/mL) [20] = assay: as above; details: 72 h
[21] = test system: normal primary NK cells, pool 3 (3 donors) (IL-2 2.5 ng/mL); assay: as above; details: 72 h
DERL-7 (IL-2 2.5 ng/mL) [22] = assay: as above; details: 72 h
SNK-6 (IL-2 2.5 ng/mL) [23] = assay: as above; details: 72 h
[24] = test system: normal primary NK cells, pool 1 (3 donors) (IL-2 2.5 ng/mL); assay: as above; details: 72 h
YT (IL-2 2.5 ng/mL) [25] = assay: as above; details: 72 h
[26] = test system: normal primary NK cells, pool 2 (3 donors) (IL-2 2.5 ng/mL); assay: as above; details: 72 h
IMC-1 (IL-2 20 ng/mL) [27] = assay: as above; details: 72 h
[28] = test system: normal primary NK cells, pool 1 (3 donors), resting (IL-2 0 ng/mL); assay: as above; details: 72 h

C[C@]12O[C@H](C[C@]1(O)CO)n1c3ccccc3c3c4c(c5c6ccccc6n2c5c31)CNC4=O [Lestaurtinib] (max concentration tested 1000 nM)
percent inhibition of viability [%]
Details	0.1 nM	1 nM	10 nM	100 nM	1000 nM
DERL-7 (IL-2 2.5 ng/mL) [22]	6.54	3.47	17.9	85.4	99.6
IMC-1 (IL-2 20 ng/mL) [27]	-6.9	-5.94	-22.2	51.8	98.9
KAI3 (IL-2 2.5 ng/mL) [17]	-0.38	3.13	35.9	86.4	76.4
KHYG-1 (IL-2 2.5 ng/mL) [20]	-2.95	1.85	23.3	99.3	98.2
NK-92 (IL-2 2.5 ng/mL) [18]	-0.14	-6.28	7.06	76.2	82.7
NK-YS (IL-2 2.5 ng/mL) [16]	-0.02	0.67	6.21	48.1	87.8
NKL (IL-2 2.5 ng/mL) [19]	-13.1	-12.9	13.3	71.2	80.6
SNK-6 (IL-2 2.5 ng/mL) [23]	0.62	7.99	4.23	64.6	73.7
YT (IL-2 2.5 ng/mL) [25]	-2.5	-0.06	3.18	55.1	91.6
[1]	0.88	0.03	29	96.5	95.9
[21]	-8.42	-14	-3.13	65.2	72.3
[24]	-8.02	-1.5	10.2	76	75.2
[26]	-7.68	3.05	13.7	69.3	73
[28]	4.88	-1.99	-2.95	26	18.6

Details	drug sensitivity score
DERL-7 (IL-2 2.5 ng/mL) [9]	17.9
IMC-1 (IL-2 20 ng/mL) [14]	11.8
KAI3 (IL-2 2.5 ng/mL) [4]	20.1
KHYG-1 (IL-2 2.5 ng/mL) [7]	21.5
NK-92 (IL-2 2.5 ng/mL) [5]	15
NK-YS (IL-2 2.5 ng/mL) [3]	10.6
NKL (IL-2 2.5 ng/mL) [6]	14.8
SNK-6 (IL-2 2.5 ng/mL) [10]	12.5
YT (IL-2 2.5 ng/mL) [12]	11.7
[2]	21.6
[8]	11.9
[11]	15.6
[13]	14.7
[15]	3.91
